Measurements taken from ChEMBL document CHEMBL1137841, “Peptidyl aldehydes as slow-binding inhibitors of dual-specificity phosphatases” (Bioorg Med Chem Lett, 2004).

Assays:
[1] = target: T1, Dual specificity protein phosphatase 3 (Homo sapiens, UniProt P51452); experiment: Tested for effect on inhibition of Dual specificity protein phosphatase 3 at a dose of 2.5 mM
Target sequence in this assay (P51452 whole entry, looked up): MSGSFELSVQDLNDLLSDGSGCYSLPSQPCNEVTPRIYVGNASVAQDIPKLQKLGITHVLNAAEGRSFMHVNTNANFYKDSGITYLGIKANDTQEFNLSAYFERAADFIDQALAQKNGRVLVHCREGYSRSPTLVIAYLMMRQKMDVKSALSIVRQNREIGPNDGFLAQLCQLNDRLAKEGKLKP

[2] = Tested for effect on inhibition of protein tyrosine phosphatase 1B
[3] = Tested for effect on inhibition of DSP VH1 (dual-specificity phosphatase vaccinia open reading frame H1)
[4] = Tested for effect on inhibition of DSP VH1 (dual-specificity phosphatase vaccinia open reading frame H1) and the value reported is overall equilibrium constant
[5] = target: T1, Dual specificity protein phosphatase 3; experiment: Tested for effect on inhibition of Dual specificity protein phosphatase 3 and the value reported is overall equilibrium constant
Target sequence in this assay (P51452 whole entry): as the sequence (P51452 whole entry, looked up) above

[6] = Tested for effect on inhibition of DSP VH1 (dual-specificity phosphatase vaccinia open reading frame H1) and the value reported is equilibrium constant

| SMILES | inhibition [1] | IC50 [2] | IC50 [3] | Ki [4] | Ki [5] | Ki [6] |
| --- | --- | --- | --- | --- | --- | --- |
| O=C/C=C/c1ccc(C(=O)O)cc1 | 40% | 970 µM | ~1000 µM |  |  |  |
| NC(=O)[C@H](CCC(=O)O)NC(=O)[C@H](CCC(=O)O)NC(=O)CNC(=O)c1ccc(/C=C/C=O)cc1 |  |  |  | 18 µM | 290 µM | 190 µM |
